Tests used:
Experiment in all cases: pre-steady-state half-reaction of the PLP form, aldimine decrease at […] nm
Assay type in all cases: biochemical
[1] = molecular target: T1, TaTT (transaminase from Thermobaculum terrenum) (Thermobaculum terrenum, UniProt D1CCW1, G40V/Y100F); details: mP2; 50 mM CHES pH 9.0, 40 °C; no amino acceptor; constant from kobs vs. substrate; read-out: pH 9.0, CHES buffer, 40°C / KD, / mM
T1 construct: gene ilvE; N-terminal His6TEV-tag, expressed in E. coli BL21(DE3)pLys; tag cut by TEV for crystals (309 visible residues, 5 N-terminal and 3 C-terminal residues invisible); functional dimer
T1 sequence (D1CCW1 entry or part of it G40V/Y100F): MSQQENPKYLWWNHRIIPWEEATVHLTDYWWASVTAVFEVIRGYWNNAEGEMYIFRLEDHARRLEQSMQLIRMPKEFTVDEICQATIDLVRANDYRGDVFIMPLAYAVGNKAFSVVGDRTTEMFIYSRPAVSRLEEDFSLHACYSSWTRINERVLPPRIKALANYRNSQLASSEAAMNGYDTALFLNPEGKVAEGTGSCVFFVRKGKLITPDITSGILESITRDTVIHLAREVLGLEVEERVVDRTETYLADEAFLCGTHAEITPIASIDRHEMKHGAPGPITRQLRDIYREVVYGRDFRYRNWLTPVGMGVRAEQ

[2] = molecular target: T2, TaTT (transaminase from Thermobaculum terrenum) (Thermobaculum terrenum, UniProt D1CCW1, G40V/R42S/Y100F/S114R); details: mP3O1; 50 mM CHES pH 9.0, 40 °C; no amino acceptor; constant from kobs vs. substrate; read-out: pH 9.0, CHES buffer, 40°C / KD, / mM
T2 construct: gene ilvE; N-terminal His6TEV-tag, expressed in E. coli BL21(DE3)pLys; tag cut by TEV for crystals (309 visible residues, 5 N-terminal and 3 C-terminal residues invisible); functional dimer
T2 sequence (D1CCW1 entry or part of it G40V/R42S/Y100F/S114R): as the sequence (D1CCW1 entry or part of it G40V/Y100F) above, with R42S, S114R counted along it

[3] = molecular target: T3, TaTT (transaminase from Thermobaculum terrenum) (Thermobaculum terrenum, UniProt D1CCW1, W31H/F38Y/G40V/R42S/Y100F); details: mP3O7; 50 mM Tris-HCl pH 8.0, 30 °C; no amino acceptor; constant from kobs vs. substrate; read-out: pH 8.0, Tris-HCl buffer, 30°C / KD, / mM
T3 construct: gene ilvE; N-terminal His6TEV-tag, expressed in E. coli BL21(DE3)pLys; tag cut by TEV for crystals (309 visible residues, 5 N-terminal and 3 C-terminal residues invisible); functional dimer
T3 sequence (D1CCW1 entry or part of it W31H/F38Y/G40V/R42S/Y100F): as the sequence (D1CCW1 entry or part of it G40V/Y100F) above, with W31H, F38Y, R42S counted along it

[4] = molecular target: T4, TaTT (transaminase from Thermobaculum terrenum) (Thermobaculum terrenum, UniProt D1CCW1); details: 50 mM CHES pH 9.0, 40 °C; no amino acceptor; constant from kobs vs. substrate; read-out: pH 9.0, CHES buffer, 40°C / KD, / mM
T4 construct: gene ilvE; N-terminal His6TEV-tag, expressed in E. coli BL21(DE3)pLys; tag cut by TEV for crystals (309 visible residues, 5 N-terminal and 3 C-terminal residues invisible); functional dimer
T4 sequence (D1CCW1 entry or part of it): as the sequence (D1CCW1 entry or part of it G40V/Y100F) above, with V40G, F100Y counted along it

[5] = molecular target: T5, TaTT (transaminase from Thermobaculum terrenum) (Thermobaculum terrenum, UniProt D1CCW1, S114R); details: mO1; 50 mM CHES pH 9.0, 40 °C; no amino acceptor; constant from kobs vs. substrate; read-out: pH 9.0, CHES buffer, 40°C / KD, / mM
T5 construct: gene ilvE; N-terminal His6TEV-tag, expressed in E. coli BL21(DE3)pLys; tag cut by TEV for crystals (309 visible residues, 5 N-terminal and 3 C-terminal residues invisible); functional dimer
T5 sequence (D1CCW1 entry or part of it S114R): as the sequence (D1CCW1 entry or part of it G40V/Y100F) above, with V40G, F100Y, S114R counted along it

[6] = molecular target: T6, TaTT (transaminase from Thermobaculum terrenum) (Thermobaculum terrenum, UniProt D1CCW1, G40V/R42S/Y100F); details: mP3; 50 mM CHES pH 9.0, 40 °C; no amino acceptor; constant from kobs vs. substrate; read-out: pH 9.0, CHES buffer, 40°C / KD, / mM
T6 construct: gene ilvE; N-terminal His6TEV-tag, expressed in E. coli BL21(DE3)pLys; tag cut by TEV for crystals (309 visible residues, 5 N-terminal and 3 C-terminal residues invisible); functional dimer
T6 sequence (D1CCW1 entry or part of it G40V/R42S/Y100F): as the sequence (D1CCW1 entry or part of it G40V/Y100F) above, with R42S counted along it

C[C@@H](N)c1ccccc1 [R-PEA, (R)-(+)-1-phenylethylamine]
Kd [1]: 13 ± 2 mM | Kd [2]: 1.5 ± 0.5 mM | Kd [3]: 44 ± 8 mM | Kd [4]: 81 ± 8 mM | Kd [5]: 3.3 ± 1.2 mM | Kd [6]: 2.6 ± 0.4 mM

— PMC8320979, “Probing the role of the residues in the active site of the transaminase from Thermobaculum terrenum” (PLoS ONE, 2021)
